Structures can show the parent of a compound that is named as a salt.

In one experiment the target is T1, human cloned 5-HT6 receptors (Homo sapiens, UniProt P50406).
T1 construct: expressed in transfected cells; host or cells: HeLa cells
T1 sequence (P50406 whole entry): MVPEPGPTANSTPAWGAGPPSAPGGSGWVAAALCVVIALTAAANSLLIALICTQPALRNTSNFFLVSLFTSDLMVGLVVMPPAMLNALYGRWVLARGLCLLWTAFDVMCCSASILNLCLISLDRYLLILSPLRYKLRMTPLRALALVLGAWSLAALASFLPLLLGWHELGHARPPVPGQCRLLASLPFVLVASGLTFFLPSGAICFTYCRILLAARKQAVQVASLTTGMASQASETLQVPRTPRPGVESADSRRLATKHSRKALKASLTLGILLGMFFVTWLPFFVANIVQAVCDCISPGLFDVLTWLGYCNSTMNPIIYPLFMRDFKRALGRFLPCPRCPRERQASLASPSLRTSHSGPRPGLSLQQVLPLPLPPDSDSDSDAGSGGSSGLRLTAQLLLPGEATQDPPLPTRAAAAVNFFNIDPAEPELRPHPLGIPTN
It counts as binding.
Conditions: not given
In general, inhibition refers to how much of the control response was suppressed. In turn, `CN(N=C1CCc2[nH]c3ccc(Cl)cc3c21)C1=NCCN1` [Example 184, 7-Chloro-3,4-dihydrocyclopenta[b]indol-1(2H)-one 4,5-dihydro-1H-imidazol-2-yl-(methyl)hydrazone] returned an inhibition at 0.1 µM of 19.8%.

Still in this experiment, the particulars now being: [3H]-LSD 3.0 nM, Hela cell membranes; read-out: 5-HT6 Binding Ki.
For orientation: Ki means the dissociation constant of the complex between target and ligand, obtained from inhibition or displacement. For `CC(=NNC(=N)N)c1cn(C)c2ccc(NS(=O)(=O)c3ccc(Cl)cc3)cc12` [Example 29], the inhibitory constant (Ki) worked out at 4 nM.
Take `Clc1ccc(-c2[nH]c3ccccc3c2C=NNC2=NCCN2)cc1` [Example 47, N-[2-(4-chlorophenyl)-1H-indol-3-ylmethylene]-N′-(4,5-dihydro-1H-imidazol-2-yl)hydrazine]: the Ki was found to be 20.2 nM.
Still for that read-out and setting: with `N=C(N)NN=Cc1c(-c2ccc(Cl)cc2)[nH]c2ccccc12` [Example 44, 2-[2-(4-chlorophenyl)-1H-indol-3-ylmethylene]hydrazinecarboximidamide] the figure was 18 nM; with `COc1ccc(S(=O)(=O)Nc2ccc3[nH]cc(C(C)=NNC(=N)N)c3c2)cc1` [Example 19], 1 nM.
Turning to `COc1ccc2[nH]c3c(c2c1)C(=NNC(=N)N)CCC3` [Example 162, N′-(6-methoxy-1,2,3,9-tetrahydro-4H-carbazol-4-ylidene)carbonohydrazonic diamide], the Ki came to 4.7 nM.
On to `C/C(=N\NC(=N)N)c1c[nH]c2ccc(NS(=O)(=O)c3ccccc3)cc12` [Example 7, (Z)-2-{1-[5-[(Phenylsulfonyl)amino]-1H-indol-3yl]ethylidene}hydrazinecarboximidamide Hydrochloride], for which the Ki was determined as 1 nM.

The experiment is the same for the next values; noted with them: test compound dose 100 nM; displacement of [3H]-LSD.
As usually defined, the % Inhibition is the percentage by which the read-out fell short of the control. In the case of `CC(=NNC(=N)N)c1c(-c2ccc(-c3ccccc3)cc2)[nH]c2ccc(Cl)cc12` [Example 141, 2-[(2-biphenyl-5-chloro-1H-indol-3-yl)-ethylidene]hydrazinecarboximidamide], the “% Inhibition” value was 33.6%.

The same experiment, now with this note: test compound dose 100 nM; displacement of [3H]-LSD; read-out: % Inhibition.
For the compound `CC1(C)CC(=NNC(=N)N)c2c([nH]c3ccc(F)cc23)C1` [Example 173, 2-(6-fluoro-2,2-dimethyl-1,2,3,9-tetrahydro-4H-carbazol-4-ylidene)hydrazinecarboximidamide], the inhibition at 0.1 µM was determined as 26.7%.
Take `Cc1ccc2[nH]c3c(c2c1)C(=NN(C)C1=NCCN1)CC(c1ccccc1)C3` (stereo not shown) [Example 175, 6-methyl-2-phenyl-1,2,3,9-tetrahydro-4H-carbazol-4-one 4,5-dihydro-1H-imidazol-2-yl(methyl)-hydrazone]: the inhibition at 0.1 µM is 18.6%.
Turning to `CN(N=C1CC(c2ccccc2)Cc2[nH]c3ccc(F)cc3c21)C1=NCCN1` (stereo not shown) [Example 180, 6-fluoro-2-phenyl-1,2,3,9-tetrahydro-4H-carbazol-4-one 4,5-dihydro-1H-imidazol-2-yl(methyl)-hydrazone], the inhibition at 0.1 µM was found to be 11.5%.
Still for that read-out and setting: with `CC1(C)CC(=NNC(=N)N)c2c([nH]c3ccc(Br)cc23)C1` [Example 169, 2-(6-bromo-2,2-dimethyl-1,2,3,9-tetrahydro-4H-carbazol-4-ylidene)hydrazinecarboximidamide] the figure was 33.9%.

Staying with this experiment, now noted: test compound dose 1000 nM; displacement of [3H]-LSD.
On to `N=C(N)NN=C(c1c(-c2ccccc2)[nH]c2ccccc12)C1CCCCC1` [Example 54, 2-[cyclohexyl-(2-phenyl-1H-indol-3-yl)-methylene]hydrazinecarboximidamide], for which the inhibition at 1 µM was 27%.
As to “2-[3-(2-chloro-phenyl)-1-(1,2-diphenyl-1H-indol-3-yl)-allylidene]hydrazinecarboximidamide [Example 88]”, the “% Inhibition” value is 37.5%.
`CC(=NNC(=N)N)c1c(-c2ccc(Cl)cc2)n(Cc2ccccc2)c2ccccc12` [Example 93, 2-{1-[1-benzyl-2-(4-chloro-phenyl)-1H-indol-3-yl]-ethylidene}hydrazinecarboximidamide] registered an inhibition at 1 µM of 22.3%.
Regarding `CC(=NNC(=N)N)c1cn(C)c2ccc(NS(=O)(=O)c3ccc(Cl)cc3)cc12` [Example 29], the inhibition at 1 µM was 98.4%.
Take `CCCNC(=NC)NN=Cc1c(-c2ccc(Cl)cc2)[nH]c2ccccc12` [Example 120, 2-{[2-(4-chlorophenyl)-1H-indol-3-yl]methylidene}-N′-methyl-N-propyl-1hydrazinecarboximidamide]: the inhibition at 1 µM was 49.9%.
As for `CN=C(NN=Cc1c(-c2ccc(Cl)cc2)[nH]c2ccccc12)NC1CCCC1` [Example 116, 2-{[2-(4-chlorophenyl)-1H-indol-3-yl]methylidene}-N-cyclopentyl-N′-methyl-1hydrazinecarboximidamide], testing at 1 µM gave an inhibition of 59.5%.
For the compound `N=C(N)NN=Cc1c(-c2ccc(Cl)cc2)n(CCc2ccccc2)c2ccccc12` [Example 110, 2-{[2-(4-chloro-phenyl)-1-(2-phenethyl)-1H-indol-3-yl]-methylene}hydrazinecarboximidamide], the “% Inhibition” value is given as 20.9%.
`CCCCCNC(=N)NN=Cc1c(-c2ccc(Cl)cc2)[nH]c2ccccc12` [Example 123, 2-{[2-(4-chlorophenyl)-1H-indol-3-yl]methylidene}-N-pentyl-1hydrazinecarboximidamide] gave an inhibition at 1 µM of 70.4%.
Take `CN(N=Cc1c(-c2ccc(Cl)cc2)n(CCC#N)c2ccccc12)C1=NCCN1` [Example 109, N-{[2-(4-chloro-phenyl)-1-(2-cyano-ethyl)-1H-indol-3-yl]-methylene}-N′-(4,5-dihydro-1H-imidazol-2-yl)-N-methylhydrazine]: the “% Inhibition” value was determined as 99.1%.
In turn, `N=C(N)NN=Cc1c(-c2ccc(F)c(Cl)c2)[nH]c2ccccc12` [Example 48, 2-[2-(3-chloro-4-fluoro-phenyl)-1H-indol-3-ylmethylene]hydrazinecarboximidamide] showed an inhibition at 1 µM of 88.6%.
The same measure, in the same setting: the figure for `CC(=NNC(=N)N)c1c(-c2ccc(F)c(F)c2)[nH]c2ccccc12` [Example 75, 2-{1-[2-(3,4-difluoro-phenyl)-1H-indol-3-yl]-ethylidene}hydrazinecarboximidamide] is 73.2%.
In turn, `N=C(N)NN=C(Cc1ccc(Cl)cc1)c1c(-c2ccc(Cl)cc2)[nH]c2ccccc12` [Example 53, 2-{1-[2-(4-chloro-phenyl)-1H-indol-3-yl]-2-(4-chloro-phenyl)-ethylidene}hydrazinecarboximidamide] gave an inhibition at 1 µM of 33.7%.
On the same count and under the same terms, with `N=C(NCCO)NN=Cc1c(-c2ccc(Cl)cc2)[nH]c2ccccc12` [Example 113, 2-{[2-(4-chlorophenyl)-1H-indol-3-yl]methylidene}-N-(2-hydroxyethyl)-1hydrazinecarboximidamide] the figure was 84.1%; with `COc1ccc(S(=O)(=O)Nc2ccc3[nH]cc(C(C)=NNC(=N)N)c3c2)cc1` [Example 19], 97.4%.
With `COc1ccc2[nH]c3c(c2c1)C(=NNC(=N)N)CCC3` [Example 162, N′-(6-methoxy-1,2,3,9-tetrahydro-4H-carbazol-4-ylidene)carbonohydrazonic diamide], the “% Inhibition” value is reported as 98%.
Turning to `CC(C)C(=NNC(=N)N)c1c(-c2ccc(Cl)cc2)[nH]c2ccccc12` [Example 57, 2-{[2-(4-chloro-phenyl)-1H-indol-3-yl]-2-methyl-propylidene}hydrazinecarboximidamide], the “% Inhibition” value turned out to be 74.6%.
The compound `CC(C)C(=NNC(=N)N)c1c(-c2ccccc2)n(C)c2ccccc12` [Example 81, 2-[1-(1-methyl-2-phenyl-1H-indol-3-yl)-2-methyl-propylidene]hydrazinecarboximidamide] had an inhibition at 1 µM of 43.2%.
The same measure, in the same setting: with `Cn1c(-c2ccccc2)c(C(Cc2ccccc2)=NNC(=N)N)c2ccccc21` [Example 83, 2-[1-(1-methyl-2-phenyl-1H-indol-3-yl)-2-phenyl-ethylidene]hydrazinecarboximidamide] the figure was 31%; with `CCCNC(=N)NN=Cc1c(-c2ccc(Cl)cc2)[nH]c2ccccc12` [Example 119, 2-{[2-(4-chlorophenyl)-1H-indol-3-yl]methylidene}-N-propyl-1hydrazinecarboximidamide], 86%.

(Values after patent publication US6951881B2, “(1-substituted-indol-3-yl) alkylidenehydrazinecarboximidamide derivatives as 5-hydroxytryptamine-6 ligands” (Wyeth, priority 2002, dated 2005).)
